We go through two compounds from patent US11845735B2, “Method for synthesizing (RS)-Warfarin” (priority 2021, dated 2023).

For data set [1], the system named is extrinsic and common coagulation pathways. Nature of the data set: prothrombin time (PT) test in rats after oral feeding. It is filed as in vivo. Conditions: male rats; for International Normalized Ratio / Prothrombin Time: 5 mg/kg fed, blood collected after 24 hours, citrated plasma. On the procedure: In this example, the anticoagulation effect of an exemplary (RS)-Warfarin was evaluated by an exemplary prothrombin time (PT) test. PT test may refer to an exemplary method carried out for monitoring oral anticoagulant therapy. PT test may measure the period of time it takes for a clot to form in a blood sample. In particular, PT test may measure the activity of exemplary coagulation factors involved in one or more exemplary extrinsic and common coagulation pathways. In one or more exemplary embodiments, prothrombin time may increase in response to inhibition of vitamin K-dependent procoagulant clotting factors (i.e., exemplary factors VII and X and prothrombin).
(§1) In an exemplary implementation, PT test may be accomplished in an animal model and may be compared to an exemplary commercial sample of Warfarin. In an exemplary implementation, 24 male rats were randomly separated into four groups, six rats in each group. Group I received distilled water (Control Group), Group II received an exemplary commercial Warfarin with an exemplary dose of 5 mg commercial Warfarin per weight of each rat (5 mg/kg), Group III received an exemplary synthesized (RS)-Warfarin with an exemplary dose of 5 mg (RS)-Warfarin per weight of each rat (5 mg/kg (Dose 1)), and Group IV received synthesized (RS)-Warfarin with an exemplary dose of 10 mg (RS)-Warfarin per weight of each rat (10 mg/kg (Dose 2)).
In an exemplary implementation, PT test was performed by feeding exemplary commercial Warfarin and Dose 1 of exemplary synthesized (RS)-Warfarin to Group II and Group III of rats, respectively. After 24 hours, exemplary blood samples were collected from two rats that were randomly selected from each of Group II and Group III. About 1.8 ml of each blood sample was added to exemplary tubes containing an exemplary anticoagulant, sodium citrate dihydrate. After centrifugation of each citrated blood sample at 2000 gr for 15 minutes, plasma was separated to be used for PT analysis. In an exemplary implementation, PT test may be performed by adding a mixture of thromboplastin and calcium to citrated plasma. Thromboplastin is a protein-phospholipid extract of tissue that may contain necessary phospholipids and tissue factors for promoting activation of factor X by factor VII. At the beginning of an exemplary anticoagulant therapy (e.g., Warfarin therapy), prothrombin time may reflect an exemplary depression of factor VII, because factor VII may have the shortest half-life among exemplary vitamin K-dependent factors. During an exemplary maintenance therapy, PT test may be sensitive to the decrease in prothrombin and factor X levels. PTs and international normalized ratios (INRs) were measured for Group II and Group III of rats.

A short description of data set [2]: clinical chemistry tests for toxicity (urea, creatinine, SGOT, SGPT, LDH) in rats. The settings on record: 5 mg/kg (Dose 1) and 10 mg/kg (Dose 2) vs commercial Warfarin 5 mg/kg, blood after 24 hours. It is filed as in vivo. On the procedure:
as §1
In this example, toxicity of exemplary (RS)-Warfarin was assessed using one or more exemplary clinical chemistry tests, such as urea test, creatinine test, SGOT (glutamic oxaloacetic transaminase) test, SGPT (glutamate-pyruvate transaminase) test, and LDH (lactate dehydrogenase) test. In an exemplary implementation, Group II, Group III, and Group IV of rats were fed with exemplary commercial Warfarin, Dose 1 of exemplary synthesized (RS)-Warfarin, and Dose 2 of exemplary synthesized (RS)-Warfarin, respectively. […]

In the case of `CC(=O)CC(c1ccccc1)c1c(O)c2ccccc2oc1=O` (stereo not drawn) [Exemplary Commercial Warfarin, Warfarin], in data set [1], the “International Normalized Ratio” value is recorded as 2.19 and the “Prothrombin Time” value worked out at 18.6 s.
For `CC(=O)CC(c1ccccc1)c1c(O)c2ccccc2oc1=O` (racemic) [Exemplary Synthesized (RS)-Warfarin, 4-hydroxy-3-(3-oxo-1-phenylbutyl)-2H-1-benzopyran-2-one], the “urea, creatinine, SGOT, SGPT and LDH test results compared to rats fed with commercial Warfarin (FIG. 8)” value in data set [2] was “may not significantly differ”. Also, the “anticoagulant effect in comparison to commercial Warfarin (PTs and INRs)” value in data set [1] (5 mg/kg each, 24 hours) is listed as “significantly increased anticoagulant effect”. Further, in data set [1], the “International Normalized Ratio” value was 3.4 and the “Prothrombin Time” value was determined as 24.4 s.
